Laboratory results reported in patent US20100041089A1, “IMPROVED METHOD FOR DETECTING CHEMICAL […]” (priority 2006, published 2010).

Tested on: yeast genes (expressed mRNA)
Experiment: DNA chip measurement of expressed mRNA of yeast genes after culture with a toxic chemical substance
Format: cell-based, Saccharomyces cerevisiae S288C
In short: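 Two-hour exposure of growing S. cerevisiae S288C (YPD, 25° C) to a sublethal toxicant preceded RNA isolation. Fluorescent cDNA was hybridized to a whole-genome array; a treated-to-untreated signal ratio of two or more was taken as significant.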

Measured: The level of expressed mRNA in the presence of chemical substance/The level of expressed mRNA in the absence of chemical substance

COc1cc(CNC(=O)CCCCC=CC(C)C)ccc1O [(12), 8-Methyl-N-vanillyl-6-nonenamide]
3.2: yeast gene YNL211C, cultured two hours with substance
6.7: yeast gene YOR049C, cultured two hours with substance
0.6: yeast gene YJL186W, cultured two hours with substance | yeast gene YKL086W, cultured two hours with substance | yeast gene YMR009W, cultured two hours with substance
0.8: yeast gene YLR324W, cultured two hours with substance | yeast gene YML117W, cultured two hours with substance | yeast gene YMR095C, cultured two hours with substance | yeast gene YMR107W, cultured two hours with substance | yeast gene YNL115C, cultured two hours with substance | yeast gene YNL208W, cultured two hours with substance | yeast gene YNL300W, cultured two hours with substance | yeast gene YOL047C, cultured two hours with substance | yeast gene YPL206C, cultured two hours with substance
1.6: yeast gene YLR103C, DNA repair protein genes, cultured two hours with substance | yeast gene YLR194C, cultured two hours with substance | yeast gene YLR345W, cultured for two hours with substance
1.7: yeast gene YMR184W, cultured two hours with substance
2.9: yeast gene YOL150C, cultured two hours with substance
0.9: yeast gene YJL165C (stress protein genes) | yeast gene YJR054W, cultured two hours with substance | yeast gene YKL213C, metabolism protein genes | yeast gene YKR091W, cultured two hours with substance | yeast gene YLR273C | yeast gene YLR348C, metabolism protein genes | yeast gene YNL045W, metabolism protein genes | yeast gene YNL074C, cultured two hours with substance | yeast gene YNL156C, cultured two hours with substance | yeast gene YNL331C | yeast gene YOL064C (stress protein genes) | yeast gene YOL117W, cultured two hours with substance | yeast gene YOL131W, cultured two hours with substance | yeast gene YOR130C, metabolism protein genes | yeast gene YPL194W (stress protein genes) | yeast gene YPL196W, cultured two hours with substance | yeast gene YPR023C, cultured two hours with substance | yeast gene YPR151C, cultured two hours with substance
3.5: yeast gene YLR008C, cultured two hours with substance
1.0: yeast gene YJL152W, cultured two hours with substance | yeast gene YJL161W, cultured two hours with substance | yeast gene YJL171C, cultured two hours with substance | yeast gene YKL071W, cultured two hours with substance | yeast gene YKL151C, cultured two hours with substance | yeast gene YLR152C, cultured two hours with substance | yeast gene YNL044W, cultured two hours with substance | yeast gene YNL169C | yeast gene YNL190W, cultured two hours with substance | yeast gene YOL032W, cultured two hours with substance | yeast gene YOL036W, cultured two hours with substance | yeast gene YOL071W, cultured two hours with substance | yeast gene YOL082W, cultured two hours with substance | yeast gene YOR019W, cultured two hours with substance | yeast gene YOR197W, cultured two hours with substance | yeast gene YOR336W, metabolism protein genes | yeast gene YPL017C, metabolism protein genes | yeast gene YPR079W, cultured two hours with substance
1.3: yeast gene YJL151C, cultured two hours with substance | yeast gene YJR008W, cultured two hours with substance | yeast gene YNR068C, cultured two hours with substance | yeast gene YOL058W | yeast gene YPL222W, cultured two hours with substance | yeast gene YPR167C
1.4: yeast gene YOL162W, cultured two hours with substance
0.4: yeast gene YLR460C, cultured two hours with substance | yeast gene YMR215W, cultured two hours with the chemical substance
2.2: yeast gene YMR090W, cultured two hours with substance
2.1: yeast gene YOL031C, cultured two hours with substance
1.1: yeast gene YKL153W, cultured two hours with substance | yeast gene YKL195W, cultured two hours with substance | yeast gene YLR054C, cultured two hours with substance | yeast gene YLR387C, cultured two hours with substance | yeast gene YMR067C, cultured two hours with substance | yeast gene YMR295C, cultured two hours with substance | yeast gene YNL092W, cultured two hours with substance | yeast gene YNL104C, metabolism protein genes | yeast gene YNL234W, cultured two hours with substance | yeast gene YNL305C, cultured two hours with substance | yeast gene YNR033W, metabolism protein genes | yeast gene YOL126C, metabolism protein genes | yeast gene YOR099W, metabolism protein genes | yeast gene YPL052W, cultured two hours with substance
2.8: yeast gene YOR382W, cultured two hours with substance
1.2: yeast gene YMR097C, cultured two hours with substance | yeast gene YMR180C, cultured two hours with substance | yeast gene YOL083W, cultured two hours with substance
4.2: yeast gene YLR346C, cultured two hours with substance
0.7: yeast gene YNL281W, cultured two hours with substance | yeast gene YNR064C, cultured two hours with substance
1.9: yeast gene YMR316W, cultured two hours with substance
1.5: yeast gene YKL152C, cultured for two hours with substance
0.5: yeast gene YOR248W, cultured two hours with substance
2.4: yeast gene YMR102C, cultured two hours with substance
1.8: yeast gene YLR350W, cultured two hours with substance | yeast gene YML054C, cultured for two hours with substance | yeast gene YMR191W, cultured two hours with substance | yeast gene YPL087W, cultured two hours with substance
2.3: yeast gene YKR075C, cultured two hours with substance
2.0: yeast gene YLR149C, cultured two hours with substance | yeast gene YMR315W, cultured two hours with substance | yeast gene YNL241C (stress protein genes)
